Patent US6900198B2, “Synthetic catalytic free radical scavengers useful as antioxidants for prevention and therapy of disease” (Eukarion, Inc., priority 1995, dated 2005)

Tests used:
[1] = Peroxidase activity toward t-BHP, ABTS oxidation; type: biochemical; conditions: 1 mM t-BHP versus same concentration of H2O2
Method: Peroxidase activity was assayed by monitoring the hydrogen peroxide-dependent oxidation of 2,2′-azino-bis(3-ethylbenzthiazoline-6) sulfonic acid (ABTS) spectrophotometrically. Standard assay mixtures consisted of 50 mM sodium phosphate, pH 8.1, 0.9% sodium chloride, 0.5 mM ABTS, and H2O2 and salen manganese complex as indicated. Where indicated, 50 mM sodium phosphate buffers of pH 6.0 or pH 7.1 were substituted. Assays were conducted at 27±0.2° C. ABTS oxidation was monitored at 740 or 500 nm to eliminate interference by the salen manganese complexes, many of which absorb in the vicinity of the λmax of oxidized ABTS, and to avoid absorbance values that exceeded the linear range of the spectrophotometer. The amount of oxidized ABTS was estimated using an Δε740 of 20,300 M^−1cm^−1 or an Δε500 of 3400 M^−1cm^−1 calculated based upon the published molar extinction coefficient oat 405 nm (36,800).
(In comparison, horseradish peroxidase utilized t-BHP with an ABTS oxidation rate that was about 5.4% of the rate with H2O2).

[2] = system: Isolated Iron-overloaded Rat Hearts; assay: Isolated iron-overloaded rat hearts submitted to ischemia and reperfusion
Method: Rats received an intramuscular injection of 0.25 ml of an iron-dextran solution (100 g iron hydroxide, 99 g dextran, water up to 11) every third day during a 5-week period to achieve a significant iron overload in cardiac tissue. At the end of this treatment, rats were anesthetized with sodium pentobarbital (40 mg/kg) and heparin (1,000 IU/kg) was administered via a femoral vein. Hearts were then removed and rapidly perfused through the aorta according to the technique described by Langendorff [Langendorff, O., Pflügers Arch. 61: 291, 1895] at a constant flow rate of 11 ml/minute. […] At the end of this period, systolic and diastolic ventricular pressures and heart beat rate (HR) were recorded through a pressure transducer linked to the ventricular balloon. Left Ventricular Developed Pressure (LVDP) was calculated by the difference between systolic and diastolic pressure and the product HR×LVDP was taken as an index of oxygen consumption. […] During this 15 minute reperfusion, heart rate, and diastolic and systolic pressures were monitored. Early ventricular fibrillations were analyzed 1 min. after the start of the reperfusion. […]
Mitochondria were classified into Type A (normal), Type B (swollen, unbroken), and Type C (ruptured membranes). […] The results are expressed as percentages.

[3] = system: Human dermal fibroblasts (HF cells); assay: Protection against t-butyl hydroperoxide toxicity in human fibroblasts (XTT); type: cell-based; conditions: 80 μM with 0.5 mM t-BHP
Method: Human dermal fibroblasts (HF cells) were obtained from the American type tissue Culture Collection at passage 1 and cultured and propagated in a medium (HF medium) consisting of Dulbecco's Modified Eagle's Medium with 4.5 g/l D-glucose, 10% calf serum 4 mM glutamine, 50 units/ml penicillin, and 50 μg/ml streptomycin in a 37° C. humidified incubator equilibrated with 5% CO2. Cells were used at passages 5 or 6 for experiments. For cell protection assays, HF cells were seeded at a density of about 15,000 cells per cm2 onto 96-well culture plates and allowed to grow to confluence. […] After 2 hr., the absorbance at 490 nm was measured in a BioRad (Richmond, Calif.) Model 3550 plate-reader, using a reference wavelength of 655 nm. […] Absorbance measurements for blank wells, containing HF medium and XTT reagent but no cells, were also determined. […] Fresh HF medium was then added and cell viability assessed using the XTT reagent as described above. […]
Cell protection assays were performed as described under Experimental Procedures with salen-manganese complexes administered at the indicated concentrations and t-BHP at 0.5 mM. Cell viability was assessed using the XTT reagent as described and is expressed as the absorbance at 490 nm uncorrected for blank. […]

[4] = system: dopaminergic neurons in mouse striatum; assay: 6-OHDA in mice, 3H-mazindol binding in striatal homogenates; type: in vivo; conditions: C7 4×66 mg/kg; 6-OHDA 50 μg i.c.v.
Method: 6-OHDA in mice. Adult male CFW mice were anesthetized with ketamine and rumpun, and immobilized in a stereotaxic device. 6-OHDA, as the hydrobromide salt, was dissolved in normal saline with 1% ascorbate, and 50 μg was administered in lateral ventricle by means of a 10 μl Hamilton syringe. […] Animals were sacrificed 7 days later, and neuronal pathology was assessed by measuring ^3H-mazindol binding in striatal homogenates.

SMILES: [Cl][Mn]1[O]c2ccccc2C=NCCN=Cc2ccccc2[O]1 [Compound C7]
- ABTS oxidation rate with t-BHP as percent of the rate with H2O2 [1]: about 0.5%
- protection of hearts from ischemia/reoxygenation damage, functionally and structurally ([2]; C7 50 μM): effectively protected hearts
- Mitochondria Type B (swollen, unbroken) ([2]; electron microscopy after 15 minute reperfusion): 15.2#□ %
- reduced viability at 80 μM relative to 40 μM together with t-BHP [3]: possible synergistic toxicity with t-BHP
- effect on 6-OHDA-induced decrease in mazindol binding, contralateral striatum [4]: complete protection
- effect on 6-OHDA-induced decrease in mazindol binding, ipsilateral striatum [4]: significant reduction
